Measured values published in PubChem BioAssay (NCI).
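96-well plates; 48 h exposure; 5 concentrations. Endpoints by linear interpolation between flanking doses. Not reached: highest tested concentration assigned. Here, GI50 denotes the concentration required for 50% inhibition of growth. TGI marks complete inhibition of growth.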

Experiments:
Experiment in all cases: DTP human tumour cell line panel, 48 h
ACHN renal = system: ACHN renal
MOLT-4 leukemia = system: MOLT-4 leukemia
NCI-H460 lung = system: NCI-H460 lung
SK-OV-3 ovarian = system: SK-OV-3 ovarian
SNB-75 CNS = system: SNB-75 CNS
SR leukemia = system: SR leukemia
DLD-1 colon = system: DLD-1 colon
DMS 114 small cell lung = system: DMS 114 small cell lung
DMS 273 small cell lung = system: DMS 273 small cell lung
HOP-18 NSCLC = system: HOP-18 NSCLC
KM20L2 colon = system: KM20L2 colon
LXFL 529 NSCLC = system: LXFL 529 NSCLC
M19-MEL melanoma = system: M19-MEL melanoma
SNB-78 CNS = system: SNB-78 CNS

Row | SMILES | TGI (ACHN renal) | TGI (MOLT-4 leukemia) | TGI (NCI-H460 lung) | TGI (SK-OV-3 ovarian) | TGI (SNB-75 CNS) | TGI (SR leukemia) | further results
1 | O=C(/C=C/c1ccccc1)CSc1nc2ccc(I)cc2c(=O)n1Cc1ccccc1 | > 100 µM | 35.2 µM | > 100 µM | > 100 µM | > 95.7 µM | 33.3 µM | 
2 | C[C@]12CCc3sc(Nc4ccc(O)cc4)nc3C1=CC[C@@H]1[C@@H]2CC[C@]2(C)C(=O)CC[C@@H]12 | 9.29 µM | > 100 µM | 10.5 µM | > 100 µM | > 100 µM | > 100 µM | GI50 (ACHN renal): 2.92 µM; GI50 (MOLT-4 leukemia): 2.38 µM; GI50 (NCI-H460 lung): 3.01 µM; GI50 (SK-OV-3 ovarian): 12.3 µM; GI50 (SNB-75 CNS): 2.76 µM; GI50 (SR leukemia): 2.72 µM
3 | COC(=O)[C@@]12C(=O)C(C)C(=O)[C@]1(C)C(C)=C[C@H]1[C@]3(C=O)CC[C@H](OC(C)=O)C(C)(C)[C@H]3CC[C@@]12C (stereo partly drawn) | > 100 µM | 69.1 µM | > 100 µM | > 100 µM | > 100 µM | > 100 µM | 
4 | O=C(Cc1ccccc1)NNc1nc(NNC(=O)c2ccncc2)nc(Nc2cccc(Cl)c2)n1 |  | > 10 µM | > 10 µM | > 10 µM | > 10 µM | > 10 µM | 
5 | O=c1[nH]c(-c2ccccc2)nc2c1sc1nc3ccccc3n12 | > 100 µM | > 100 µM | > 100 µM | > 100 µM | > 100 µM | > 100 µM | 
6 | CN(C)CCn1c(=O)c2ccc3c4c(nn3CCN(C)C)c3cc(O)ccc3n(c1=O)c24 | 0.689 µM | 0.127 µM | 0.254 µM | 0.74 µM | 1.42 µM | 0.0505 µM | 
7 | CC(C)(C)OC(=O)N(CCNS(=O)(=O)c1cccc2cnccc12)CCC(=O)ON1C(=O)CCC1=O | > 100 µM | > 100 µM | > 100 µM | > 100 µM | > 100 µM | > 100 µM | 
8 | CCOP(=O)(OCC)C1=C(c2ccccc2)OC(N)=C(C#N)C1c1ccc(Cl)cc1 (stereo not drawn) | > 100 µM | > 100 µM | > 100 µM | > 100 µM | > 100 µM | > 100 µM | 
9 | O=C(O)CC1(CC(=O)O)Nc2ccccc2SC1=O | > 100 µM | > 100 µM | > 100 µM | > 100 µM | > 100 µM | > 100 µM | 
10 | O=C1/C(=C/c2ccccc2)CCC/C1=C\c1ccc(O)c(CN2CCCCC2)c1 | 3.8 µM | 8.21 µM | 16.5 µM | 22.2 µM | 17.1 µM | 6.38 µM | 
11 | O=C1Nc2ccccc2/C1=C/c1c(Cl)[nH]c2ccc(O)cc12 | 31.4 µM | 40.1 µM | 13.9 µM | 30.4 µM | 12.4 µM | 12 µM | 
12 | O=C(/C=C/c1ccc(Cl)cc1)c1cccs1 | 37.5 µM | 52.8 µM | 35.4 µM | 77 µM | 43.4 µM | 50.5 µM | 
13 | COc1cccc2c1C(=O)c1ccc3cc(CCl)cc(O)c3c1C2=O | 0.84 µM | 2.88 µM | 0.768 µM | 1.83 µM | 1.67 µM | 1.13 µM | 
14 | O=C1/C(=C/c2c(Cl)[nH]c3ccccc23)c2ccccc2N1c1ccccc1 | 57.2 µM | 31.8 µM | 14.4 µM | 14.2 µM | 37.8 µM | 19.6 µM | 
15 | NC(CCCCNC(=O)CNC(=O)OCc1ccccc1)C(=O)NC(CCCCNC(=O)CNC(=O)OCc1ccccc1)C(=O)NC(CCCCNC(=O)CNC(=O)OCc1ccccc1)C(=O)NC(CCCCNC(=O)CNC(=O)OCc1ccccc1)C(=O)NC(CCCCNC(=O)CNC(=O)OCc1ccccc1)C(=O)NC(CCCCNC(=O)CNC(=O)OCc1ccccc1)C(=O)O (stereo not drawn) | > 75 µM | > 75 µM | > 75 µM |  | > 75 µM | > 75 µM | 
16 | CCOc1ccc(NCC2CC/C(=C\c3ccc(O)cc3)C2=O)cc1 (stereo not drawn) | 31.2 µM | > 38.4 µM | 54.2 µM | > 58.5 µM | 27.8 µM | 5.13 µM | 
17 | O=C1C(=C(I)I)c2ccccc2-c2ccccc21 | 5.59 µM | 6.48 µM | 33.9 µM | 28 µM | 12.8 µM | 10.2 µM | 
18 | Cc1ccc2c(C)c3ccc4ccccc4c3c[n+]2c1 | > 100 µM | 45.9 µM | 35.2 µM | > 87.2 µM | 25.9 µM | 42.8 µM | TGI (DLD-1 colon): > 100 µM; TGI (DMS 114 small cell lung): 31 µM; TGI (DMS 273 small cell lung): 32.7 µM; TGI (HOP-18 NSCLC): 43.2 µM; TGI (KM20L2 colon): > 100 µM; TGI (LXFL 529 NSCLC): 30.4 µM; TGI (M19-MEL melanoma): 17.3 µM; TGI (SNB-78 CNS): > 100 µM
19 | Cn1c(=O)c2c(ncn2CCCCOc2ccc3c(c2)[n+]([O-])nc(N)[n+]3[O-])n(C)c1=O |  | > 100 µM | > 100 µM | > 100 µM | 90 µM | > 100 µM | 
20 | CCOc1cc2c(cc1OC(C)=O)C(=O)CC[C@H]1C3CC[C@H](OC(C)=O)[C@@]3(C)CC[C@H]21 (stereo partly drawn) | > 100 µM | > 100 µM | > 100 µM | > 100 µM | > 100 µM | > 100 µM | 
21 | Nc1nc(N)c2[nH]cnc2n1 (tested in a mixture with another compound) | 48.6 µM | > 100 µM | 63.4 µM | > 100 µM | > 100 µM | > 100 µM | 
22 | COC1=CC(=O)c2c(O)c3c(c(O)c2C1=O)C=C(C)OC3O (stereo not drawn) | 6.89 µM | 5.04 µM | 3.18 µM | 23.7 µM | 3.97 µM | 5.46 µM | TGI (DLD-1 colon): 3.87 µM; TGI (DMS 114 small cell lung): 2.96 µM; TGI (DMS 273 small cell lung): 2.17 µM; TGI (KM20L2 colon): 10.4 µM; TGI (LXFL 529 NSCLC): 2.7 µM; TGI (M19-MEL melanoma): 0.502 µM; TGI (SNB-78 CNS): 4.14 µM
23 | O=C(CNC(=O)OCc1ccccc1)NCCCCC(NC(=O)OCc1ccccc1)C(=O)NC(CCCCNC(=O)CNC(=O)OCc1ccccc1)C(=O)OCc1ccccc1 (stereo not drawn) | > 62.5 µM | > 62.5 µM | > 62.5 µM |  | > 62.5 µM | > 62.5 µM | 
24 | COC(C)(C)CCc1[nH]c2ccccc2c1CC(=O)NCCc1cncn1C | > 100 µM | > 100 µM | > 100 µM | > 100 µM | > 100 µM | > 100 µM | 
25 | Cc1cc2nc(-c3c(F)cccc3F)n(Cc3c(F)cccc3F)c2cc1C | 35.4 µM | 33.8 µM | 49.7 µM | 42.2 µM | 26.1 µM | 30.4 µM | 
26 | C/C(=N\NC(=S)Nc1ccc(C)cc1)c1nc2ncccc2[nH]1 | 14.3 µM | 17.6 µM | 13.6 µM | 58.3 µM | 22.5 µM | > 100 µM | 
